Measurements from patent US20250188078A1, “SMALL MOLECULE INHIBITORS OF THE CRL4 UBIQUITIN LIGASE” (Cornell University, priority 2022, published 2025).

Columns and labels:
[1] = tested on: CUL4A^high MDA-MB-468 breast cancer cells; test: Cell killing in CUL4-high MDA-MB-468 cells (CellTiter Glo); type: cell-based; details: Homo sapiens, 192 h; MDA-MB-468 cells, 8 days treatment; read-out: EC50 CUL4-High Cells (cell killing)
Protocol: EC50 refers to concentration of compound that induces 50% killing of CUL4A^high MDA-MB-468 cells (see Table 1, column 6). CUL4A^high MDA-MB-468 breast cancer cells were seeded in 96 well plates. After 24 hours, cells were treated with DMSO or compounds. Change fresh medium and compounds. After 8 days treatment, cell viability was examined by using CellTiter Glo kit (Promega #7570) following the manufacturer's guidelines (https://www.promega.com/-/media/files/resources/protocols/technicalbulletins/0/celltiter-glo-luminescent-cell-viability-assay protocol.pdf?rev=0d95c232094b41daa06d0c110d1d916f&sc_lang=en, hereby incorporated by reference in its entirety for all purposes). EC50 concentration was calculated by Prism 8 XY analysis nonlinear regression (curve fit-Log(inhibitor) vs response). Lower EC50 indicates high cell killing potential in CUL4^high MDA-MB-468 cells.
CUL4A^high MDA-MB-468, CUL4^low (T47D), and MCF7 breast cancer cells were seeded in 96 well plates separately. Cells were treated with DMSO, or from 0 to 20 μM compound respectively. Replace with fresh medium and compounds every 48 hours. After 8 days treatment, cell viability was examined by CellTiter Glo kit (Promega #7570). First, transfer the appropriate volume (10 ml for Cat. #G7570) of CellTiter-Glo® Buffer into the amber bottle containing CellTiter-Glo® Substrate to reconstitute the lyophilized enzyme/substrate mixture. This forms the CellTiter-Glo® Reagent. Second, add CellTiter-Glo® Reagent in an equal volume (100 μl per well for 96-well plates) to all wells. Mix contents for 2 minutes on an orbital shaker to induce cell lysis. Incubate at room temperature for 15 minutes to stabilize luminescent signal. Then record luminescence. EC50 concentration was calculated by Prism 8 XY analysis nonlinear regression (curve fit-Log(inhibitor) vs response).

[2] = biological target: CUL4A-DDB1-BPB interaction (Homo sapiens (Human), UniProt Q16531); test: AlphaLISA in vitro binding assay, CUL4A and DDB1-BPB binding; details: inhibition of CUL4A and DDB1-BPB binding
Source text: AlphaLISA IC50 (see Table 1, column 4) means the half maximal inhibitory concentration of compound that inhibits CUL4A and DDB1-BPB binding. Our lab established and optimized 384 well-based AlphaLISA in vitro binding assay for testing small molecule inhibitory activity. Small molecule libraries were screened for compounds that disrupt CUL4A-DDB1-BPB interaction using AlphaScreen detection beads (PerkinElmer, #AL112C and #6765300) following the manufacturer's protocol (https://www.perkinelmer.com/PDFs/downloads/GDE-Alphatech.pdf, hereby incorporated by reference in its entirety for all purposes). The 384-well assay plates (Greiner Bio-one, #781075) were read in Synergy Neo2 Hybrid Multi-Mode Reader (BioTek). The IC50 was calculated by Prism 8 XY analysis nonlinear regression (curve fit-Log(inhibitor) vs response).

[3] = tested on: UV-induced CUL4-dependent DDB2 degradation in MEF-F-DDB2 cells; test: Cell-based assay for inhibition of UV-induced CUL4-dependent DDB2 degradation; parameters: key: (+) means that the normalized DDB2/α-tubulin ratio is higher in the compound treated sample than DMSO treated sample; (−) means that no change happens between compound treated sample with control sample; details: DDB2/α-tubulin by Western blot
Protocol: Cell-based assay for inhibition of UV-induced CUL4-dependent DDB2 degradation by small molecule CUL4 inhibitors (see Table 1, column 5). Briefly, MEF-F-DDB2 cells were seeded in 6-well plates. DMSO or indicated concentrations of compounds were added to MEF-F-DDB2 cells growing in serum-free medium. MEF-F-DDB2 cells were washed once with PBS and subsequently irradiated with a Philips TUV lamp (predominantly 254 nm) at a dose rate of 0.2 W/m^2. DMSO or compounds were added to MEF-F-DDB2 cells, and then cells were harvested. The cells were lysed, and equal amounts of proteins were resolved on SDS-PAGE gel and Flag-DDB2 levels were detected using anti-DDB2 (D4C4) rabbit antibody (Cell signaling, #5416S). α-tubulin (Proteintech, #66031-1-Ig) was used as an internal loading control. (+) means that the normalized DDB2/α-tubulin ratio is higher in the compound treated sample than DMSO treated sample. (−) means that no change happens between compound treated sample with control sample.

Sequence of CUL4A-DDB1-BPB interaction (Q16531 403-706): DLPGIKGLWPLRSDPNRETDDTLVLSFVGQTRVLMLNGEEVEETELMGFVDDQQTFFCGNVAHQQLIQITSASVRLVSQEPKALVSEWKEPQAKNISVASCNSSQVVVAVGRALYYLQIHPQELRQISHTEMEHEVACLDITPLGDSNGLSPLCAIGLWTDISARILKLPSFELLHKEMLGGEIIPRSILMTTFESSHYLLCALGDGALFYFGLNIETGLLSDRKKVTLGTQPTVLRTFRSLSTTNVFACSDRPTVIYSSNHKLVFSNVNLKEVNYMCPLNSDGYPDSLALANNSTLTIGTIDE

Row | IC50 [2] [µM] | SMILES | other results
1 | 0.22 | CN(c1ccc(-c2nc(C(=O)O)cc3c2[nH]c2cc(F)cc(F)c23)cc1)S(=O)(=O)c1ccccc1 [PA1-5, 5,7-difluoro-1-(4-(N-methylphenylsulfonamido)phenyl)-9H-pyrido[3,4-b]indole-3-carboxylic acid] | EC50 [1]: 10.7 µM
2 | 1.13 | CN(c1ccc(-c2nc(C(=O)O)cc3c2[nH]c2cc(Cl)ccc23)cc1)S(=O)(=O)c1ccccc1 [PA1-6, 1-[4-[benzenesulfonyl(methyl)amino]phenyl]-7-chloro-9H-pyrido[3,4-b]indole-3-carboxylic acid] | EC50 [1]: 7.89 µM
3 |  | O=C(O)c1cc2c([nH]c3cc(F)ccc32)c(-c2ccc(Oc3ccccc3)cc2)n1 [PA1-11A, 7-fluoro-1-(4-phenoxyphenyl)-9H-pyrido[3,4-b]indole-3-carboxylic acid] | EC50 [1]: 15.7 µM; Degradation Inhibition (inhibition of UV-induced DDB2 degradation) [3]: −
4 |  | O=C(O)c1cc2c([nH]c3cc(F)ccc32)c(-c2ccc(OCCc3ccccc3)cc2)n1 [PA1-11B, 7-fluoro-1-(4-phenethoxyphenyl)-9H-pyrido[3,4-b]indole-3-carboxylic acid] | EC50 [1]: 15.2 µM; Degradation Inhibition (inhibition of UV-induced DDB2 degradation) [3]: −
5 |  | O=C(O)c1cc2c([nH]c3cc(F)ccc32)c(-c2ccc(OCCCc3ccccc3)cc2)n1 [PA1-11C, 7-fluoro-1-(4-(3-phenylpropoxy)phenyl)-9H-pyrido[3,4-b]indole-3-carboxylic acid] | EC50 [1]: 7.31 µM; Degradation Inhibition (inhibition of UV-induced DDB2 degradation) [3]: −
6 |  | O=C(O)c1cc2c([nH]c3cc(F)ccc32)c(-c2ccc(OCC3CCCCC3)cc2)n1 [PA1-11D, 1-(4-(cyclohexylmethoxy)phenyl)-7-fluoro-9H-pyrido[3,4-b]indole-3-carboxylic acid] | EC50 [1]: 9.51 µM; Degradation Inhibition (inhibition of UV-induced DDB2 degradation) [3]: −
7 |  | O=C(O)c1cc2c([nH]c3cc(F)ccc32)c(-c2ccc(OCc3ccoc3)cc2)n1 [PA1-11J, 7-fluoro-1-(4-(furan-3-ylmethoxy)phenyl)-9H-pyrido[3,4-b]indole-3-carboxylic acid] | Degradation Inhibition (inhibition of UV-induced DDB2 degradation) [3]: −
8 |  | O=C(O)c1cc2c([nH]c3cc(F)ccc32)c(-c2ccc(OCc3ccncn3)cc2)n1 [PA1-11L, 7-fluoro-1-(4-(pyrimidin-4-ylmethoxy)phenyl)-9H-pyrido[3,4-b]indole-3-carboxylic acid] | Degradation Inhibition (inhibition of UV-induced DDB2 degradation) [3]: −
9 |  | O=C(O)c1cc2c([nH]c3cc(F)ccc32)c(-c2ccc(OCn3cncn3)cc2)n1 [PA1-11M, 1-(4-((1H-1,2,4-triazol-1-yl)methoxy)phenyl)-7-fluoro-9H-pyrido[3,4-b]indole-3-carboxylic acid] | Degradation Inhibition (inhibition of UV-induced DDB2 degradation) [3]: −
10 | 0.139 | Cc1cc(F)cc2[nH]c3c(-c4ccc(N(C)S(=O)(=O)c5ccccc5)cc4)nc(C(=O)O)cc3c12 [PA1-14, 7-fluoro-5-methyl-1-(4-(N-methylphenylsulfonamido)phenyl)-9H-pyrido[3,4-b]indole-3-carboxylic acid] | EC50 [1]: 7.36 µM
11 | 3.97 ± 0.79 | O=C(O)c1cc2c([nH]c3ccccc32)c(-c2cccc(Cl)c2)n1 [PA6] | 
12 | 32.2 ± 7.89 | Cn1c2ccccc2c2cc(C(=O)O)nc(-c3ccc([N+](=O)[O-])cc3)c21 [PA14, 9-methyl-1-(4-nitrophenyl)pyrido[3,4-b]indole-3-carboxylic acid] | 
13 | 3.4 ± 0.88 | O=C(O)c1cc2c([nH]c3ccccc32)c(-c2ccc(CO)cc2)n1 [PA21] | 
14 | 14.7 ± 3.25 | O=C(O)c1cc2c([nH]c3ccccc32)c(-c2cccc(O)c2)n1 [PA22] | 
15 | 2.38 ± 0.9 | N#Cc1cccc(-c2nc(C(=O)O)cc3c2[nH]c2ccccc23)c1 [PA23] | 
16 | 12 | COC(=O)c1cccc(-c2nc(C(=O)O)cc3c2[nH]c2ccccc23)c1 [PA24, 1-(3-methoxycarbonylphenyl)-9HPage pyrido[3,4-b]indole-3-carboxylic acid] | Degradation Inhibition (inhibition of UV-induced DDB2 degradation) [3]: +
17 | 2.52 ± 0.54 | O=C(O)c1cc2c([nH]c3ccccc32)c(-c2cccnc2)n1 [PA25] | Degradation Inhibition (inhibition of UV-induced DDB2 degradation) [3]: +
18 | 4.81 ± 0.96 | CN1C=C(c2nc(C(=O)O)cc3c2[nH]c2ccccc23)C=NC1 [PA26] | 

Row | IC50 [2] [µM] | SMILES | other results
19 | 23.1 ± 4.02 | O=C(O)c1cc2c([nH]c3ccccc32)c(-c2ncc[nH]2)n1 [PA27] | 
20 | 34.8 ± 8.75 | O=C(O)c1cc2c([nH]c3ccccc32)c(-c2ccc3[nH]ccc3c2)n1 [PA28, 1-(1H-indol-5-yl)-9H-pyrido[3,4-b]indole-3-carboxylic acid] | 
21 | 3.79 ± 1.02 | Cc1c(/C(=N\CC(=O)O)c2ccc3[nH]ncc3c2)[nH]c2ccccc12 [PA29] | 
22 |  | O=[N+]([O-])c1ccc(-c2nc(Br)cc3c2[nH]c2ccc(Br)cc23)cc1 [PA30, 3,6-dibromo-1-(4-nitrophenyl)-9H-pyrido[3,4-b]indole] | AlphaLisa IC50 [2]: Neg
23 | 3.54 ± 0.68 | O=C(O)c1cc2c([nH]c3ccccc32)c(-c2ccc(F)c(F)c2)n1 [PA32] | 
24 | 7.1 ± 0.61 | O=C(O)c1cc2c([nH]c3ccccc32)c(-c2cccc([N+](=O)[O-])c2)n1 [PA36] | 
25 |  | CS(=O)(=O)Nc1cc2c([nH]c3ccccc32)c(-c2ccc([N+](=O)[O-])cc2)n1 [PA38, N-[1-(4-nitrophenyl)-9H-pyrido[3,4-b]indol-3-yl]methanesulfonamide] | AlphaLisa IC50 [2]: Neg
26 |  | NS(=O)(=O)c1cc2c([nH]c3ccc(Cl)cc32)c(-c2ccc([N+](=O)[O-])cc2)n1 [PA41, 6-chloro-1-(4-nitrophenyl)-9H-pyrido[3,4-b]indole-3-sulfonamide] | AlphaLisa IC50 [2]: Neg
27 | 0.94 ± 0.24 | CCS(=O)(=O)c1ccc(-c2nc(C(=O)O)cc3c2[nH]c2ccccc23)cc1 [PA45, 1-(4-ethylsulfonylphenyl)-9Hpyrido[3,4-b]indole-3-carboxylic acid] | 
28 | 0.96 ± 0.096 | NS(=O)(=O)c1ccc(-c2nc(C(=O)O)cc3c2[nH]c2ccccc23)cc1 [PA49, 1-(4-sulfamoylphenyl)-9H-pyrido[3,4-b]indole-3-carboxylic acid] | 
29 | 0.81 ± 0.21 | CN(C)S(=O)(=O)c1ccc(-c2nc(C(=O)O)cc3c2[nH]c2ccccc23)cc1 [PA50, 1-[4-(dimethylsulfamoyl)phenyl]-9H-pyrido[3,4-b]indole-3-carboxylic acid] | 
30 | 5.5 ± 1.89 | O=C(O)c1cc2c([nH]c3ccccc32)c(-c2ccc(-c3ccc(F)cc3)cc2)n1 [PA58] | 
31 | 25 ± 12.5 | Cc1ccc(-c2ccc(-c3nc(C(=O)O)cc4c3[nH]c3ccccc34)cc2)cc1 [PA59] | 
32 | 17.5 ± 6.39 | COc1ccc(-c2ccc(-c3nc(C(=O)O)cc4c3[nH]c3ccccc34)cc2)cc1 [PA60] | Degradation Inhibition (inhibition of UV-induced DDB2 degradation) [3]: −
33 | 3.86 ± 0.59 | CS(=O)(=O)c1ccc(-c2ccc(-c3nc(C(=O)O)cc4c3[nH]c3ccccc34)cc2)cc1 [PA61] | 
34 | 36.5 ± 9.9 | O=C(O)c1cc2c([nH]c3ccccc32)c(-c2ccc(C#Cc3ccccc3)cc2)n1 [PA62] | 
35 | 9.04 ± 0.89 | CS(=O)(=O)c1ccc(-c2nc(C(=O)O)nc3c2[nH]c2ccccc23)cc1 [PA70, 4-(4-methylsulfonylphenyl)-5H-pyrimido[5,4-b]indole-2-carboxylic acid] | 
36 | 1.52 ± 0.19 | O=C(O)c1cc2c([nH]c3ccccc32)c(-c2ccc(NS(=O)(=O)c3ccccc3)cc2)n1 [PA77, 1-[4-(benzenesulfonamido)phenyl]-9H-pyrido[3,4-b]indole-3-carboxylic acid] | 

Row | SMILES | IC50 [2] [µM] | other results
37 | COCCOCC#Cc1ccc(-c2nc(C(=O)O)cc3c2[nH]c2ccccc23)cc1 [PA63] | 5.05 ± 0.2 | 
